Reference: patent US11773109B2, “Composition for hardening soft tissue” (The Catholic University of Korea Industry—Academic …, priority 2016, dated 2023)
Entries after “also recorded” stand apart in the source; their conditions may differ.

What was measured:
pancreas of mice [1] = experiment: Tension (suture-holding capacity) of the mouse pancreas after treatment, Newton dynamometer; assay type: in vivo; details: mouse pancreas treated with 1 mM of compound; for change in the tension of the pancreas compared to the control: compared to control (PBS / untreated), result in words; for response vs control in vivo at 1000 µM: fold of control, read-out: increase of the tension of the pancreas compared to the control
Protocol: Specifically, it means a force which occurs in an organ in response to an external force exerted by stretching or pulling action. The measurement of the tension according to the present invention is performed using a dynamometer. More specifically, the tension is determined by measuring suture-holding capacity using a Newton dynamometer. At this time, the tension is calculated by adding the weight of the tissue.
(§1) More specifically, three mice were treated with 1 mM of each of the antibiotics shown above, and three mice were treated with phosphate buffered saline (PBS) as a control.
(2) Measurement of Tensile
The tension of the pancreas was measured using a dynamometer. Specifically, a pancreatic fragment having a size of 1×1×1.5 cm was prepared, and then silk 4-0 suture was passed through the tissue to form a knob, and suture-holding capacity was measured using a Newton dynamometer. At this time, the tension was calculated by adding the weight of the tissue.

pancreas of mice [2] = experiment: Hardness (elastic modulus) of the mouse pancreas after treatment, hardness meter (Venustron); assay type: in vivo; details: mouse pancreas treated with 1 mM of compound; compared to control (PBS / untreated); result in words
Protocol: The measurement of the hardness according to the present invention is performed using a hardness meter, and measurement of the hardness of the pancreas is performed by measuring elastic modulus (EM) based on the Hooke's law and the Hertz's contact stress theory. The EM is a measure of the stiffness of an elastic material, and is expressed as the ratio of “the stress along the axis” and “the total strain along the axis within the range of the stress” by the Hooke's law.
as §1
(1) Measurement of Hardness
In order to measure the resistance of the pancreas using a hardness meter, the elastic modulus (EM) of the dissected pancreas was measured using Venustron (Axiom, Koriyama, Japan) based on the Hooke's law and the Hertz's contract stress theory, and the resistance of the pancreas was calculated using the following equation: […]
(F, force; v, Poisson's ratio; t, variant of compression; r, the diameter of a rigid spherical probe that presses an object vertically)

| Compound | change in the tension of the pancreas compared to the control (pancreas of mice [1]) | change in the hardness of the pancreas compared to the control (pancreas of mice [2]) | response vs control in vivo at 1000 µM (pancreas of mice [1]) |
| --- | --- | --- | --- |
| CC1(C)S[C@@H]2[C@H](NC(=O)[C@H](N)c3ccccc3)C(=O)N2[C@H]1C(=O)[O-].[Na+] [KRM-60036, Sodium (2S,5R,6R)-6-((R)-2-amino-2-phenylacetamido)-3,3-dimethyl-7-oxo-4-thia-1-azabicyclo[3.2.0]heptane-2-carboxylate, reference compound] | had the effects of increasing the tension and hardness | significantly increased the hardness; also recorded: had the effects of increasing the tension and hardness; also recorded: excellent effect on an increase in the hardness |  |
| CC1(C)S[C@@H]2[C@H](NC(=O)Cc3ccccc3)C(=O)N2[C@H]1C(=O)OCC1CCCCC1 [KRM-60029, Cyclohexylmethyl (2S,5R,6R)-3,3-dimethyl-7-oxo-6-(2-phenylacetamido)-4-thia-1-azabicyclo[3.2.0]heptane-2-carboxylate] | both the hardness and tension of the pancreas increased | both the hardness and tension of the pancreas increased |  |
| O=C(O)c1cc(O)c2cccc(O)c2n1 [KRP-00005, 4,8-dihydroxyquinoline-2-carboxylic acid] | increased both the hardness and tension | increased both the hardness and tension | ≥ 150% |
| Oc1c(I)cc(I)c2cccnc12 [KRP-00004, 5,7-diiodo-8-hydroxyquinoline] | increased both the hardness and tension | increased both the hardness and tension | ≥ 150% |
| CCOCCOCCOC(=O)[C@@H]1N2C(=O)[C@@H](NC(=O)Cc3ccccc3)[C@H]2SC1(C)C [KRM-60080, 2-(2-ethoxyethoxy)ethyl (2S,5R,6R)-3,3-dimethyl-7-oxo-6-(2-phenylacetamido)-4-thia-1-azabicyclo[3.2.0]heptane-2-carboxylate] | increased both the hardness and tension of the pancreas to significant levels | increased both the hardness and tension of the pancreas to significant levels |  |
